Measured values taken from PMC10447463, “Data-mining unveils structure–property–activity correlation of viral infectivity enhancing self-assembling peptides” (Nature Communications, 2023).

System: HIV-1 infection of TZM-bl cells
Assay: HIV-1 infectivity enhancement assay, β-galactosidase luminescence
Assay type: cell-based
Details: input.xlsx of the Pattern-Analysis script; infectivity relative to EF-C (peptide 59 = 1.00)

| Substance | infectivity |
| --- | --- |
| EIEIEIEI [compound 82] | 0.0178 |
| KVKVQVV [compound 119] | 0.00912 |
| QCKAKAQANMWQ [compound 19] | 0.07 |
| RGDSKIKIQIC [compound 126] | 0.60 |
| KIKIQINMW [compound 75] | 2.16 |
| CKIKIQIRGD [compound 109] | 0.33 |
| KIKIKIKIWW [compound 139] | 0.37 |
| KLKLKLQL [compound 117] | 0.10 |
| KLKQLL [compound 95] | 0.00739 |
| KIKIQI [compound 79] | 0.07 |
| QCKIKIQI [compound 22] | 0.11 |
| RGDCKFKFQF [compound 145] | 0.15 |
| FDPFDPFDP [compound 40] | 0.0234 |
| CKAKAQANM [compound 11] | 0.03 |
| RPRGLLLGNLR [compound 36] | 0.05 |
| NMWQKIKIQI [compound 72] | 0.21 |
| KIKIQINMAQ [compound 83] | 0.21 |
| KAKAKAQA [compound 116] | 0.00871 |
| KIKIKIQINMWQ [compound 163] | 0.79 |
| KFKFQFW [compound 147] | 0.16 |
| RGDKIRGDKI [compound 51] | 0.00748 |
| CKFKFQFNMW [compound 91] | 0.96 |
| HIHIQIC [compound 29] | 0.27 |
| QCKFKFQF [compound 27] | 0.77 |
| QCKFKFQFNM [compound 26] | 0.51 |
| KFKQFFINMWQ [compound 158] | 0.92 |

| Substance | infectivity |
| --- | --- |
| CKYKYQY [compound 92] | 0.04 |
| MKFM [compound 49] | 0.0175 |
| KVKVQVVV [compound 123] | 0.0351 |
| QCKIKQIINMWQ [compound 59] | 1.00 |
| MKIKIQINMWQ [compound 143] | 0.42 |
| KFKFQFN [compound 9] | 0.018 |
| RGDKIKIQIC [compound 103] | 0.83 |
| KAKAQANMWQ [compound 66] | 0.00715 |
| CKIKQIINMWQ [compound 101] | 1.24 |
| RGDKIKIQINM [compound 104] | 0.41 |
| KIKIKIQI [compound 115] | 0.10 |
| KIKIKIKIYYYY [compound 86] | 1.38 |
| KFKFQFNM [compound 8] | 0.47 |
| ILKNLSRSRKIKIQIC [compound 128] | 0.34 |
| CKWKWQW [compound 94] | 0.25 |
| KFKFEFEF [compound 106] | 0.0284 |
| KIKIQIW [compound 146] | 0.14 |
| KIKIQIMQWN [compound 160] | 0.72 |
| CKFC [compound 50] | 0.011 |
| KIKIQIN [compound 77] | 0.27 |
| HRRHFRHKITKKK [compound 45] | 0.0136 |
| CEIEIQINM [compound 134] | 0.0651 |
| RGDSGGGGGGKIKIQIC [compound 127] | 0.87 |
| CSISIQINM [compound 135] | 0.20 |
| MDQMDQMDQMDQMDQ [compound 39] | 0.00427 |
| RGDKIKIQINMC [compound 111] | 1.07 |
